The source of these data is patent publication US6632975B1, “Method for the production of in vivo model of hepatocellular carcinoma without lung metastasis” (Kabushiki Kaisha Daiyu-Kai Institute of Medical Science, priority 2000, dated 2003).

The subject of the series is F344 Fisher rats. Kind of series: Production of in vivo lung metastatic hepatoma model: incidences of hepatocellular carcinoma and lung metastasis, survival (Example 1). Also noted: species or system rat. As to the method: Animals used in this example were F344 Fisher rats (purchased from Charles River Japan Inc.).
Diethylnitrosoamine (hereinafter, referred to as “DEN”) and nitrosomorpholine (hereinafter, referred to as “NMOR”) were purchased from Tokyo Kasei Kogyo Co., Ltd.
DEN was diluted with physiological saline, and intraperitoneally injected in animals at a dose of 100 mg/kg body weight, or it was diluted with tap water to make the concentration of 50 ppm and administered via drinking water feeding bottle. NMOR was diluted with tap water to make the concentration of 120 ppm, and administered via a drinking water feeding bottle.
Animals were divided into four groups and treated as follows: Animals of the first group were given 50 ppm of DEN in drinking water for 16 weeks, and were sacrificed and subjected to autopsy in week 16. Animals of the second group were given 100 mg/kg body weight of DEN via intraperitoneal injection at the start of the experiment, and were sacrificed and subjected to autopsy in week 22. Animals of the third group were given 120 ppm of NMOR in drinking water for 22 weeks, and were sacrificed and subjected to autopsy in week 22. Animals of the fourth group were given 100 mg/kg body weight of DEN via intraperitoneal injection at the start of the experiment were given NMOR from the start to week 22 of the experiment, and were sacrificed and subjected to autopsy in week 22.
Liver and lung as well as other tissues were collected, fixed in formalin and stained with hematoxylin-eosin by the standard method to prepare specimens. Specimens were microscopically examined for presence of hepatocellular carcinoma in the liver and metastatic lesion in the lung to determine incidences of hepatocellular carcinoma and lung metastasis, which are shown in FIG. 1.

The mark [1] stands for this setting: DEN 50 ppm in drinking water for 16 weeks, autopsy week 16.
The mark [2] stands for this setting: NMOR 120 ppm in drinking water for 22 weeks, autopsy week 22.

On to `CCN(CC)N=O` [DEN, Diethylnitrosoamine], for which, under setting [1], the incidence of hepatoma was found to be 100% and the lung metastasis entry is given as “no lung metastasis was observed”.
Regarding `O=NN1CCOCC1` [NMOR, nitrosomorpholine], under setting [2], the incidence of hepatoma was 100% and the “lung metastasis (animals affected)” value was “only one animal”.
